Measurements reported in PMC9312114, “Synthesis and Evaluation of Novel DNA Minor Groove Binders as Antiamoebic Agents” (Antibiotics, 2022).

Legend:
[1] = tested on: DNA; assay: Biophysical analysis of binding with DNA; settings: in words
[2] = tested on: Acanthamoeba castellanii; assay: Encystation assay; type: cell-based; settings: 16% glucose, 48 h, negative control 100% cysts
Protocol: The effects of the compounds on amoeba encystation were determined through the conduction of encystation assays. Briefly, 1 × 10^6 trophozoites were incubated with the compounds in a final concentration of 16% filter-sterilized glucose. Following a 48 h incubation period, 0.1% SDS was added per well for 20 min. The cysts were then counted by using a haemocytometer. To ensure accuracy, Acanthamoeba castellanii was cultured in 16% glucose, serving as the negative control.

[3] = tested on: HeLa cells; assay: Cytotoxicity assay (LDH release); type: cell-based, human; settings: 50 µM, 24 h, LDH release, Triton X-100 = 100%
Protocol: HeLa cells were acquired from American Type Culture Collection (ATCC) of identification ATCC CCL-2, Singapore. The cells are utilized to conduct cytotoxicity and cytopathogenicity assays. Through their cultivation in complete media, the cells were grown, and then they were placed in a 95% humidifying incubator at 37 °C and 5% CO2. Complete medium comprises Roswell Park Memorial Media (RPMI), 1% penicillin–streptomycin, 1% minimum essential medium amino acids, 1% L-glutamine, and 10% fetal bovine serum (FBS). To determine the toxicity of the compounds against human HeLa cells, cytotoxicity assays were conducted. In short, HeLa cells were cultured in 96-well plates and treated with the compounds. The plate was then placed in a humidifying incubator with 95% humidity and 5% CO2, at 37 °C, for 24 h. After 24 h, the supernatant was collected, and the cytotoxicity of the compounds was determined through a cytotoxicity detection kit that measured the quantity of lactate dehydrogenase (LDH) release. Accurate results were ensured through the addition of positive and negative controls. Untreated HeLa cells served as the negative control, whereas HeLa cells treated with 1% Triton X-100 served as the positive control. Finally, the cytotoxic properties were numerically determined by following the necessary calculations: (absorbance of media from cells treated with the drugs—absorbance of media from cells of negative control)/(absorbance of media from cells of positive control—absorbance of media from cells of negative control) × 100 [19].

[4] = tested on: Acanthamoeba castellanii cysts; assay: Excystation assay; type: cell-based; settings: cysts in PYG, negative control 100%, read-out: viable trophozoites (re-emergence of cysts to trophozoites)
Protocol: Amoeba culture was suspended in 3 mL phosphate-buffered saline (PBS) and placed on non-nutrient bacteriological agar plates to allow for the growing of Acanthamoeba castellanii cysts. After two weeks, PBS was applied to plates containing amoeba cysts, which were then scraped off. The amoebae were centrifuged at 3000× g for 10 min, and the resulting pellet was resuspended in RPMI. The 5 × 10^5 cysts were then incubated in PYG, along with 50 µM of the compounds. To ensure accuracy, amoeba cysts in PYG alone were considered as the negative control, whereas amoeba cysts in RPMI alone were taken as the positive control, as the cysts would not be able to revert back to trophozoites. The amoeba trophozoites were then numbered by using a haemocytometer.

[5] = tested on: Acanthamoeba castellanii on HeLa cell monolayers; assay: Cytopathogenicity assay (amoeba-mediated host-cell death); type: cell-based; settings: amoebae pretreated with 50 µM for 2 h, then 24 h on HeLa cells, negative control 100%
Protocol: Amoeba-mediated host-cell death was determined by treating 5 × 10^5 amoebae with 50 µM of compounds. The amoeba-containing plate was then placed in the incubator for 2 h at 30 °C. Following the 2 h incubation period, the treated amoebae were put on confluent HeLa cell monolayers. The plate containing the treated amoebae and HeLa cells was incubated for 24 h. Progressing the incubation period, the supernatant was collected, and the cytotoxicity was determined. Accurate results were ensured through the addition of negative and positive controls. The untreated amoebae, alone, on the cells served as the negative control, while the cells treated with Triton X-100 served as the positive control.

[6] = tested on: Acanthamoeba castellanii; assay: Amoebicidal assay; type: cell-based, Acanthamoeba castellanii genotype T4 (ATCC 50492)
Protocol: Acanthamoeba castellanii genotype T4 (ATCC 50492) was cultivated in 10 mL growth medium of peptone yeast glucose (PYG) in tissue flasks (Baig, et al., 2021; Anwar, et al., 2019). The growth medium, PYG, consists of 0.75% proteose peptone, 0.75% yeast extract, and 1.5% glucose. Next, the amoebae were kept in tissue flasks and incubated at 30 °C.
To determine the compounds’ antiamoebic effects, amoebicidal assays were conducted. The 5 × 10^5 amoebae were placed in a 24-well plate and brought to a final volume of 500 µL. […] The 24-well plate was then placed in a 30 °C incubator for 24 h. Positive and negative controls were added to the assay in order to ensure reliable results. Serving as the negative control was the amoebae alone, with RPMI [4]. Meanwhile, amoebae, along with 0.25% sodium dodecyl sulphate (SDS), were used as the positive control. Through the addition of 0.1% methylene blue, live and dead amoebae were distinguished. Additionally, significant compounds were identified by conducting a Student’s t-test with a two-tailed distribution. Furthermore, the MIC50 values of three compounds were determined by using concentrations of […], 75, and 100 µM.

Structure (SMILES): CN(C)CCCNC(=O)c1cc(NC(=O)c2cc(NC(=O)c3cc(NC(=O)c4nccn4C)cn3C)cn2C)cn1C [MGB5, N-(5-((5-((5-((3-(dimethylamino)propyl)carbamoyl)-1-methyl-1H-pyrrol-3-yl)carbamoyl)-1-methyl-1H-pyrrol-3-yl)carbamoyl)-1-methyl-1H-pyrrol-3-yl)-1-methyl-1H-imidazole-2-carboxamide]
- ability to bind with DNA [1]: bind with DNA
- cysts present [2]: 48.3%
- cytotoxicity against human HeLa cells [3]: 10.9%
- viability at 50 µM [4]: 80.8%
- amoeba-mediated host-cell death (cytotoxic activity due to amoeba) [5]: 57.8%
- viability at 50 µM ([6]; Acanthamoeba castellanii, 50 µM, 24 h, negative control 100%, read-out: amoeba viability): 98.4%
- activity against Acanthamoeba castellanii ([6]; in words): no activity
